Tested on: keratoconjunctival epithelial damage caused by dry eye
Experiment: Therapeutic efficacy test using smoking rat (Example 5), comparison with Diquas
Format: in vivo, Sprague-Dawley rats
Method: In this experiment, both eyes of each animal were used. The same drug solution was administered to both eyes of each animal, and a comparison was made among groups. Six-week-old male Sprague-Dawley rats were subjected to smoking treatment to develop dry-eye models. Specifically, a treatment in which mainstream smoke (300 mL) was added to a rat-containing chamber 6 times at 30-minute intervals was performed for 12 days to induce a keratoconjunctival epithelial damage. […] The tear volume and fluorescent staining score were measured in accordance with the method described in Example 3. For statistical analysis, a significant difference test was performed using the Dunnett method in terms of each group with respect to the smoking group.

O=c1ccn([C@@H]2O[C@H](COP(=O)(O)OP(=O)(O)OP(=O)(O)OP(=O)(O)OC[C@H]3O[C@@H](n4ccc(=O)[nH]c4=O)[C@H](O)[C@@H]3O)[C@@H](O)[C@H]2O)c(=O)[nH]1 [diquafosol sodium, reference compound]
body weight (smoking rats after 11-day treatment, instilled 5 μL 4 times per day, smoking group 280.0±5.8): 273.8 ± 4.3 g
average fluorescein score (fluorescent staining score) (smoking rats, DR 300 μM in PBS or Diquas 3%, 5 μL 4 times per day for 11 days, smoking group 4.6±1.2, non-smoking 1.2±1.2): 4.3±1.6
tear volume (cotton thread test) (smoking rats, DR 300 μM in PBS or Diquas 3%, 5 μL 4 times per day for 11 days, smoking group 11.3±9.0, non-smoking 17.6±9.1): 11.0±6.5 mm

— US9968566B2, “Pharmaceutical composition for prophylaxis and/or treatment of corneal and conjunctival diseases or presbyopia containing stilbene compound as active ingredient” (KEIO UNIVERSITY, priority 2014, dated 2018)
